From patent US20140088144A1, “INHIBITING MICROBIAL INFECTIONS” (THE UNIVERSITY OF KANSAS, priority 2012, published 2014)

How the values were obtained:
RhaS = RhaS (Escherichia coli, UniProt P09377); assay: In vivo dose-response, RhaS-activated rhaB-lacZ reporter fusion (β-galactosidase); assay type: cell-based, E. coli; conditions: full-length RhaS
Source text: For dose-response studies, a rhaB-lacZ reporter strain was designed that allowed IPTG induction of RhaS or RhaS(163-278) expression from pHG165 (and thus rhaB-lacZ expression). The strain was constructed by introducing malP::lacIq into SME3000 via phage P1vir-mediated generalized transduction. First, SME3000 was transduced with Δcrp-3 zhc-511::Tn10 from SME1403, selecting for tetracycline resistance and screening for sorbitol deficiency (indicating Δcrp) using MacConkey sorbitol. SME3000 Acrp-3 zhc-511::Tn10 was transduced with crp^+ malP::lacI^q from SG22166, selecting for growth on minimal sorbitol and screening for maltose deficiency (indicating malP::lacI^q) using MacConkey maltose. Finally, SME3000 malP::lacI^q zhc-511::Tn10 was transduced with recA::cat from SME1048 by selecting for chloramphenicol resistance, to make strain SME3632.
The top hit identified in the screen was 1-ethyl-4-(nitromethyl)-3-quinolin-2-yl-4H-quinoline, Compound 2. The closely related compound, Compound 1,1-butyl-4-(nitromethyl)-3-quinolin-2-yl-4H-quinoline, was obtained from eMolecules, Inc. (Solana Beach, Calif.; catalog #3761-0013) or Princeton BioMolecular Research (Princeton, N.J.; catalog #OSSL—051168), with the Princeton named used here. […] Lysis/ONPG buffer (50 μL, as in Primary Screen) was added to each well and the plate was immediately placed into a PowerWave XS plate reader (BioTek Instruments, Inc., Winooski, Vt.), set to read the OD420 of each well every 15 min for 4 hr. […] Due to differences in kinetics of lacZ reporter expression, the rhaB-lacZ strains were analyzed at 4 hours and the hts-lacZ strain was analyzed at 1 hr. Percent activity was calculated for each condition as described above, using the single time point with appropriate OD420 levels for each strain. […] IC50 and maximal inhibition values were calculated using the XLfit add-in for Microsoft Excel (ID Business Solutions, Guildford, UK), and graphs were drawn using Prism (GraphPad, La Jolla, Calif.).

[1] = test system: human epithelial cells (HeLa); assay: Alamar Blue [resazurin] metabolic activity of tissue culture cells used in invasion assays; assay type: cell-based
Source text: We expect that Compound 1 can impact host cell interaction but have little or no effect on growth rate of Shigella, based on our results with non-pathogenic E. coli strains.

icsB = assay: Shigella gene expression qRT-PCR, icsB; assay type: cell-based, S. flexneri; conditions: for Average ΔΔCt / Ct / RQ (2^−ΔΔCt) / ΔΔCt^1 (normalized to gapA) / ΔΔCt^2 (normalized to rrsA): icsB, example data
Procedure: Real-time quantitative reverse transcription PCR (qRT-PCR) was performed to test the effects of SE-1 on the expression of the VirF regulated genes virB, icsA, icsB and ipaB. The gapA and rrsA transcripts were used as internal controls. These are constitutively expressed Shigella genes commonly used to normalize mRNA levels. S. flexneri strain SME4331, which carries a null mutation in ipgD (ipgD), was grown at 30° C. overnight in TSB with ampicillin, diluted into the same medium to an OD600 of ˜0.1, and 1 ml aliquots further grown at 30° C. (DMSO only) or at 37° C. (SE-1 at 20 or 40 μM, or DMSO only, all 0.3% DMSO). Cells were grown to an OD600 of 1.0 (˜2.5 h) and RNA was isolated using an RNeasy MiniElute Cleanup Kit (Qiagen, Germantown, Md.), with DNA contamination eliminated using a Turbo DNase Kit (Ambion, Austin, Tex.). Complementary DNA (cDNA) was synthesized by random priming using a cDNA Reverse Transcription Kit (Applied Biosystems, Foster City, Calif.). Primers were tested for PCR specificity using genomic DNA template to ensure a single amplicon of the expected size for each primer pair, and validated using 5-fold dilutions of cDNA (2000 to 0.0256 ng) to ensure a linear plot of cycle threshold (Ct) versus cDNA concentration. Validated primer sets were used to test mRNA profiles in reactions that contained 10 ng of cDNA, 10 μl of SYBR green master mix (Applied Biosystems), specific primers (0.5 μM each) and water to a final volume of 20 μl, using a Step One Plus Real-Time PCR System (Applied Biosystems). The data was analyzed using the 2^−ΔΔCt method, and also by Applied Biosystems real-time analysis software. […] In brief, ΔΔCt values [ΔΔCt=(Ct,Target−Ct,Internal Control)SE-1−(Ct,Target−Ct,Internal Control)no SE-1] were separately obtained for each sample relative to two internal controls, gapA and rrsA. The ΔΔCt values relative to the two internal controls for each sample were averaged and then used to calculate the relative expression levels (2^−ΔΔCt). As a control, we also normalized each internal control to the other internal control. Control reactions used templates generated without reverse transcriptase to ensure low genomic DNA contamination. To ensure that products were not likely to be due to primer dimer artifacts, additional control samples were performed in which reaction mixtures contained primers alone (no template).

Shigella = Shigella growth; assay type: cell-based, S. flexneri

RhaS, sequence (P09377 whole entry, the tested form may be a part): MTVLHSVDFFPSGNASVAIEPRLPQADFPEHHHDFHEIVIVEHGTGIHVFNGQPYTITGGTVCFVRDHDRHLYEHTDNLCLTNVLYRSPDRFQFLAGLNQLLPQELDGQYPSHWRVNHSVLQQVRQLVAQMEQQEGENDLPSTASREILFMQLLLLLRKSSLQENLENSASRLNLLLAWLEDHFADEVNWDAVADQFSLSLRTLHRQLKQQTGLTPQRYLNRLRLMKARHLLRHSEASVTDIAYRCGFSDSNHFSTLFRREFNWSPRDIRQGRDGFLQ

Compound: CCCCN1C=C(c2ccc3ccccc3n2)C(C[N+](=O)[O-])c2ccccc21 (centres unmarked) [Compound 1, 1-butyl-4-(nitromethyl)-3-quinolin-2-yl-4H-quinoline]
- inhibition of the RhaS-activated fusion (RhaS; rhaB-lacZ): fully inhibit expression
- IC50 (RhaS; rhaB-lacZ (SME3634), read-out: IC50, expression of the RhaS-activated fusion): ~30 µM
- metabolic activity of the tissue culture cells [1]: did not have any effect
- reduction of icsB expression (icsB; 40 μM SE-1, P<0.05): two-fold reduction
- Average ΔΔCt (icsB; SE-1 20 μM): −0.06
- Ct (icsB; SE-1 20 μM): 26.25
- RQ (2^−ΔΔCt) (icsB; SE-1 20 μM): 1.04
- ΔΔCt^1 (normalized to gapA) (icsB; SE-1 20 μM): −0.56
- ΔΔCt^2 (normalized to rrsA) (icsB; SE-1 20 μM): 0.44
- Average ΔΔCt (icsB; SE-1 40 μM): 1.14
- Ct (icsB; SE-1 40 μM): 27.04
- RQ (2^−ΔΔCt) (icsB; SE-1 40 μM): 0.45
- ΔΔCt^1 (normalized to gapA) (icsB; SE-1 40 μM): 0.80
- ΔΔCt^2 (normalized to rrsA) (icsB; SE-1 40 μM): 1.49
- growth of S. flexneri samples (Shigella; 80 μM SE-1, virB-lacZ strain): exhibited growth defects
- decrease in the Shigella growth rate (Shigella; concentrations up to 40 μM, SME4331): no detectable decrease
- Shigella growth rate (Shigella; strain M90T, invasion study with human epithelial cells): not the Shigella growth rate
